Measurements taken from patent US11629171B2, “Beta-hairpin peptidomimetics” (POLYPHOR AG, priority 2017, dated 2023).
Converted amounts (≈) assume the structure as drawn. Where a SMILES comes first, the peptide text is derived from it. Bridges are numbered along the chain shown (N, C = ends). Roman numbers before positions name the chains, in order. [ ]: non-standard residue; d: D form. The star is where a group is joined. Thr(ol) = C[C@@H](O)[C@H](N)CO; Tle = CC(C)(C)[C@H](N)C(=O)O; Hiv = CC(C)[C@H](O)C(=O)O; dDab = NCC[C@@H](N)C(=O)O; hSer = N[C@@H](CCO)C(=O)O; Dab = NCC[C@H](N)C(=O)O; Dap = NC[C@H](N)C(=O)O; NHCH2CH2OH = OCCN*

Legend:
Format in all cases: cell-based
[1] = tested on: Acinetobacter baumannii 872842; conditions: 872842
Procedure, shortened: (§1)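 Cation-adjusted MH-II broth, 0.002% polysorbate 80, inoculum near 10^6 CFU/mL. MIC read visually after 18-20 h, 35° C; units μg/mL.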

[2] = tested on: Acinetobacter baumannii DSM 30008; conditions: DSM 30008
Procedure, shortened: as §1

[3] = tested on: Enterobacter cloacae 848840; conditions: 848840
Procedure, shortened: as §1

Escherichia coli 926415 = conditions: 926415
Procedure, shortened: as §1

[4] = tested on: Escherichia coli ATCC 25922; conditions: ATCC 25922
Procedure, shortened: as §1

[5] = tested on: Klebsiella pneumoniae 968733; conditions: 968733
Procedure, shortened: as §1

[6] = tested on: Klebsiella pneumoniae SSI #3010; conditions: SSI #3010
Procedure, shortened: as §1

[7] = tested on: Pseudomonas aeruginosa ATCC 27853; conditions: ATCC 27853
Procedure, shortened: as §1

[8] = tested on: human red blood cells (hRBC); experiment: Hemolysis; conditions: red cells of human, 1 h, 200
Procedure, shortened: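 Washed fresh human RBC (20% v/v) incubated with peptide at 200 μg/mL for 1 h at 37° C with shaking. Supernatant OD540 measured after dilution, blank corrected; percent hemolysis = OD540 peptide / OD540 of 2% Triton X-100 lysis × 100, PBS with 10% water as 0%.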

Row | SMILES | MIC [1] | MIC [2] | MIC [3] | MIC (Escherichia coli 926415) | MIC [4] | MIC [5] | MIC [6] | MIC [7] | Hemolysis at 200 μg/mL [8]
1 | CC(=O)N[C@H](C(=O)N[C@H](C(=O)N[C@@H](Cc1ccc(O)cc1)C(=O)N[C@H]1CSSC[C@@H](C(=O)N[C@H](C(=O)N[C@@H](CCN)C(=O)N[C@H](C(N)=O)C(C)C)C(C)(C)C)NC(=O)[C@H](Cc2c[nH]c3ccccc23)NC(=O)[C@H](CO)NC(=O)[C@@H](CCN)NC(=O)[C@H](CCC(=O)N[C@@H](CCN)C(=O)N[C@H](C(=O)N[C@@H](CN)C(=O)N[C@H]2CCNC(=O)[C@H]([C@@H](C)O)NC(=O)[C@H](CCN)NC(=O)[C@H](CCN)NC(=O)[C@H](CC(C)C)NC(=O)[C@@H](CC(C)C)NC(=O)[C@H](CCN)NC2=O)[C@@H](C)O)NC1=O)[C@@H](C)O)C(C)C [Ex. 206] (I: Ac-VTYCE[dDab]SWC[Tle][Dab]V-NH2 / II: [Dab]T[Dap][Dab][Dab][dL]L[Dab][Dab]T; disulfide I:4-I:9; amide I:5-II:N; lactam II:4-II:C) | 0.0625 µg/mL (≈ 0.0256 µM) | 0.0625 µg/mL (≈ 0.0256 µM) | 0.125 µg/mL (≈ 0.0513 µM) | 0.0625 µg/mL (≈ 0.0256 µM) | 0.03125 µg/mL (≈ 0.0128 µM) | 0.5 µg/mL (≈ 0.205 µM) | 0.0625 µg/mL (≈ 0.0256 µM) | 0.125 µg/mL (≈ 0.0513 µM) | 1%
2 | CC(C)C[C@@H]1NC(=O)[C@@H](CC(C)C)NC(=O)[C@H](CCN)NC(=O)[C@@H](NC(=O)[C@H](CCN)NC(=O)[C@@H](NC(=O)[C@H](CCN)NC(=O)CC[C@@H]2NC(=O)[C@H](CCN)NC(=O)[C@H](C(C)C)NC(=O)[C@@H](NC(=O)[C@@H](O)C(C)C)CSSC[C@@H](C(=O)N[C@@H](Cc3ccc(O)cc3)C(=O)NCCO)NC(=O)[C@H](C(C)(C)C)NC(=O)[C@H](CO)NC(=O)[C@H](Cc3c[nH]c4ccccc34)NC(=O)[C@H](CCO)NC(=O)[C@@H](CCN)NC2=O)[C@@H](C)O)CCNC(=O)[C@H]([C@@H](C)O)NC(=O)[C@H](CCN)NC(=O)[C@H](CCN)NC1=O [Ex. 69] (I: H-[Hiv]CV[Dab]E[dDab][hSer]WS[Tle]CY-NHCH2CH2OH / II: [Dab]T[Dab][Dab][Dab][dL]L[Dab][Dab]T; disulfide I:2-I:11; amide I:5-II:N; lactam II:4-II:C) | 0.0625 µg/mL (≈ 0.0254 µM) | 0.0625 µg/mL (≈ 0.0254 µM) | 0.125 µg/mL (≈ 0.0509 µM) | 0.0625 µg/mL (≈ 0.0254 µM) | 0.0625 µg/mL (≈ 0.0254 µM) | 0.125 µg/mL (≈ 0.0509 µM) | 0.0625 µg/mL (≈ 0.0254 µM) | 0.125 µg/mL (≈ 0.0509 µM) | 2%
3 | CC(=O)N[C@H](C(=O)N[C@H](C(=O)N[C@@H](Cc1ccc(O)cc1)C(=O)N[C@H]1CSSC[C@@H](C(=O)N[C@H](C(=O)N[C@@H](CO)C(N)=O)C(C)C)NC(=O)[C@H](Cc2c[nH]c3ccccc23)NC(=O)[C@H](CCO)NC(=O)[C@@H](CCN)NC(=O)[C@H](CCC(=O)N[C@@H](CCN)C(=O)N[C@H](C(=O)N[C@@H](CCN)C(=O)N[C@H]2CCNC(=O)[C@H]([C@@H](C)O)NC(=O)[C@H](CCN)NC(=O)[C@H](CCN)NC(=O)[C@H](CC(C)C)NC(=O)[C@@H](CC(C)C)NC(=O)[C@H](CCN)NC2=O)[C@@H](C)O)NC1=O)[C@@H](C)O)C(C)C [Example 11] (I: Ac-VTYCE[dDab][hSer]WCVS-NH2 / II: [Dab]T[Dab][Dab][Dab][dL]L[Dab][Dab]T; disulfide I:4-I:9; amide I:5-II:N; lactam II:4-II:C) | 8 µg/mL (≈ 3.42 µM) | 0.125 µg/mL (≈ 0.0534 µM) | 2 µg/mL (≈ 0.854 µM) | 4 µg/mL (≈ 1.71 µM) | 0.125 µg/mL (≈ 0.0534 µM) | 4 µg/mL (≈ 1.71 µM) | 0.125 µg/mL (≈ 0.0534 µM) | 0.25 µg/mL (≈ 0.107 µM) | 1%
4 | CC(=O)N[C@@H](CCN)C(=O)N[C@H](C(=O)N[C@H]1CSSC[C@@H](C(N)=O)NC(=O)[C@H](C(C)(C)C)NC(=O)[C@H](CO)NC(=O)[C@H](Cc2c[nH]c3ccccc23)NC(=O)[C@H](CCN)NC(=O)[C@@H](CCN)NC(=O)[C@H](CCC(=O)N[C@@H](CCN)C(=O)N[C@H](C(=O)N[C@@H](CN)C(=O)N[C@H]2CCNC(=O)[C@H]([C@@H](C)O)NC(=O)[C@H](CCN)NC(=O)[C@H](CCN)NC(=O)[C@H](CC(C)C)NC(=O)[C@@H](CC(C)C)NC(=O)[C@H](CCN)NC2=O)[C@@H](C)O)NC(=O)[C@H](CN)NC(=O)[C@H](Cc2ccc(O)cc2)NC1=O)C(C)C [Ex. 126] (I: Ac-[Dab]VCY[Dap]E[dDab][Dab]WS[Tle]C-NH2 / II: [Dab]T[Dap][Dab][Dab][dL]L[Dab][Dab]T; disulfide I:3-I:12; amide I:6-II:N; lactam II:4-II:C) | 0.25 µg/mL (≈ 0.103 µM) | 0.125 µg/mL (≈ 0.0515 µM) | 0.5 µg/mL (≈ 0.206 µM) | 0.125 µg/mL (≈ 0.0515 µM) | 0.125 µg/mL (≈ 0.0515 µM) | 0.25 µg/mL (≈ 0.103 µM) | 0.125 µg/mL (≈ 0.0515 µM) | 0.25 µg/mL (≈ 0.103 µM) | <1%
5 | CC(C)C[C@@H]1NC(=O)[C@@H](CC(C)C)NC(=O)[C@H](CCN)NC(=O)[C@@H](NC(=O)[C@H](CCN)NC(=O)[C@@H](NC(=O)[C@H](CCN)NC(=O)CC[C@@H]2NC(=O)[C@@H](NC(=O)[C@H](Cc3ccc(O)cc3)NC(=O)[C@@H](NC(=O)[C@@H](N)C(C)C)[C@@H](C)O)CSSC[C@@H](C(=O)N[C@H](C(=O)N[C@@H](C)C(=O)N[C@@H](CO)C(N)=O)C(C)(C)C)NC(=O)[C@H](Cc3c[nH]c4ccccc34)NC(=O)[C@H]([C@@H](C)O)NC(=O)[C@@H](CCN)NC2=O)[C@@H](C)O)CCNC(=O)[C@H]([C@@H](C)O)NC(=O)[C@H](CCN)NC(=O)[C@H](CCN)NC1=O [Ex. 182] (I: H-VTYCE[dDab]TWC[Tle]AS-NH2 / II: [Dab]T[Dab][Dab][Dab][dL]L[Dab][Dab]T; disulfide I:4-I:9; amide I:5-II:N; lactam II:4-II:C) | 0.125 µg/mL (≈ 0.0524 µM) | 0.0625 µg/mL (≈ 0.0262 µM) | 0.125 µg/mL (≈ 0.0524 µM) | 0.5 µg/mL (≈ 0.21 µM) | 0.03125 µg/mL (≈ 0.0131 µM) | 1 µg/mL (≈ 0.419 µM) | 0.125 µg/mL (≈ 0.0524 µM) | 0.125 µg/mL (≈ 0.0524 µM) | <1%
6 | CC(=O)N[C@@H](CCN)C(=O)N[C@H](C(=O)N[C@H](C(=O)N[C@@H](Cc1ccc(O)cc1)C(=O)N[C@@H](CN)C(=O)N[C@@H](CCC(=O)N[C@@H](CCN)C(=O)N[C@H](C(=O)N[C@@H](CN)C(=O)N[C@H]1CCNC(=O)[C@H]([C@@H](C)O)NC(=O)[C@H](CCN)NC(=O)[C@H](CCN)NC(=O)[C@H](CC(C)C)NC(=O)[C@@H](CC(C)C)NC(=O)[C@H](CCN)NC1=O)[C@@H](C)O)C(=O)N[C@H](CCN)C(=O)N[C@@H](CO)C(=O)N[C@@H](Cc1c[nH]c2ccccc12)C(=O)N[C@@H](CO)C(=O)N[C@H](C(=O)N[C@@H](CO)C(=O)N[C@H](C(=O)N[C@@H](CCC(=O)O)C(N)=O)C(C)C)C(C)(C)C)[C@@H](C)O)C(C)C [Ex. 249] (I: Ac-[Dab]VTY[Dap]E[dDab]SWS[Tle]SVE-NH2 / II: [Dab]T[Dap][Dab][Dab][dL]L[Dab][Dab]T; amide I:6-II:N; lactam II:4-II:C) | 0.03125 µg/mL (≈ 0.0119 µM) | 0.03125 µg/mL (≈ 0.0119 µM) | 0.125 µg/mL (≈ 0.0476 µM) | 0.125 µg/mL (≈ 0.0476 µM) | 0.03125 µg/mL (≈ 0.0119 µM) | 0.25 µg/mL (≈ 0.0953 µM) | 0.0625 µg/mL (≈ 0.0238 µM) | 0.125 µg/mL (≈ 0.0476 µM) | 2%
7 | CC(C)C[C@@H]1NC(=O)[C@@H](CC(C)C)NC(=O)[C@H](CCN)NC(=O)[C@@H](NC(=O)[C@H](CCN)NC(=O)[C@@H](NC(=O)[C@H](CCN)NC(=O)CC[C@@H]2NC(=O)[C@H](CCN)NC(=O)[C@H](Cc3ccc(O)cc3)NC(=O)[C@@H](NC(=O)[C@@H](O)C(C)C)CSSC[C@@H](C(=O)N[C@H](CO)[C@@H](C)O)NC(=O)[C@H](C(C)C)NC(=O)[C@H](CO)NC(=O)[C@H](Cc3c[nH]c4ccccc34)NC(=O)[C@H](CCO)NC(=O)[C@@H](CCN)NC2=O)[C@@H](C)O)CCNC(=O)[C@H]([C@@H](C)O)NC(=O)[C@H](CCN)NC(=O)[C@H](CCN)NC1=O [Ex. 78] (I: H-[Hiv]CY[Dab]E[dDab][hSer]WSVC[Thr(ol)] / II: [Dab]T[Dab][Dab][Dab][dL]L[Dab][Dab]T; disulfide I:2-I:11; amide I:5-II:N; lactam II:4-II:C) | 0.125 µg/mL (≈ 0.0524 µM) | 0.0625 µg/mL (≈ 0.0262 µM) | 2 µg/mL (≈ 0.838 µM) | 0.125 µg/mL (≈ 0.0524 µM) | 0.03125 µg/mL (≈ 0.0131 µM) | 0.0625 µg/mL (≈ 0.0262 µM) | 0.25 µg/mL (≈ 0.105 µM) | 0.125 µg/mL (≈ 0.0524 µM) | <1%
